Laboratory results: ChEMBL document CHEMBL1811872, “Tryptophan 2,3-dioxygenase (TDO) inhibitors. 3-(2-(pyridyl)ethenyl)indoles as potential anticancer immunomodulators” (J Med Chem, 2011)

Assays:
[1] = target: Tryptophan 2,3-dioxygenase (Mus musculus, UniProt P48776); assay: Inhibition of mouse TDO expressed in mouse P815B cells assessed as inhibition of tryptophan catabolism by measuring kynurenine production after 8 hrs by HPLC analysis; format: cell-based
[2] = Cytotoxicity against mouse P815B cells […] by MTT assay; format: functional; conditions: read-out: LD50 (the source's name)

Chain of Tryptophan 2,3-dioxygenase (P48776 whole entry): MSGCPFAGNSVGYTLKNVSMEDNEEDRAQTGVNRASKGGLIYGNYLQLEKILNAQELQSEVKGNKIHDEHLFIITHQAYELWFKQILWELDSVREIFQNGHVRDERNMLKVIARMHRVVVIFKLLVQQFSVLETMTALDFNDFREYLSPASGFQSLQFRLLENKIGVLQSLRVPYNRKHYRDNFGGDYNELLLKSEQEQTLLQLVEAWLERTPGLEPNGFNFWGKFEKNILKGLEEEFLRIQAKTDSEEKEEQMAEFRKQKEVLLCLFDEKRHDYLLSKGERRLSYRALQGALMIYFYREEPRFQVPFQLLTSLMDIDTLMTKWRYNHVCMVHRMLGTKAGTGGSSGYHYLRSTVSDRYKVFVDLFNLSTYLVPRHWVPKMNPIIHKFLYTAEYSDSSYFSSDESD

Work on `C(=C\c1c[nH]c2ccccc12)/c1ccncc1` yielded an IC50 [1] of 20 µM and a CC50 [2] of over 100 µM.

Work on `Fc1ccc2[nH]cc(/C=C/c3cccnc3)c2c1` yielded an IC50 [1] of 5 µM and a CC50 [2] of over 80 µM.

Work on `C(=C\c1c[nH]c2ccccc12)/c1ccccn1` yielded an IC50 [1] of 20 µM and a CC50 [2] of over 100 µM.

In the case of `N#CSCCc1c[nH]c2ccccc12`, the IC50 [1] is reported as 44 µM and the CC50 [2] is reported as over 80 µM.

In the case of `C(=C\c1ccc2[nH]ccc2c1)/c1cccnc1`, the IC50 [1] is reported as over 200 µM and the CC50 [2] is reported as over 80 µM.

With `C(=C\c1c[nH]c2c1ccc1ccccc12)/c1cccnc1` the IC50 [1] was over 200 µM and the CC50 [2] was over 80 µM.

`C(=C\c1c[nH]c2ccncc12)/c1cccnc1` showed an IC50 [1] of over 200 µM and a CC50 [2] of over 80 µM.

`C(=C\c1c[nH]c2ncccc12)/c1cccnc1` gave an IC50 [1] of 18 µM and a CC50 [2] of over 80 µM.

`C(=C\c1n[nH]c2ccccc12)/c1cccnc1` showed an IC50 [1] of over 200 µM and a CC50 [2] of over 80 µM.

Compound `C(=C\c1c[nH]cn1)/c1cccnc1` has an IC50 [1] of over 200 µM and a CC50 [2] of over 80 µM.

For `Fc1ccc(-c2n[nH]cc2/C=C/c2cccnc2)cc1`, the IC50 [1] was over 200 µM and the CC50 [2] was over 80 µM.

Compound `C(=C\c1ccc2ccccc2c1)/c1cccnc1` has an IC50 [1] of over 200 µM and a CC50 [2] of over 80 µM.

Work on `Cn1cc(/C=C/c2cccnc2)c2ccc(F)cc21` yielded an IC50 [1] of over 200 µM and a CC50 [2] of over 200 µM.

For `Cc1[nH]c2ccccc2c1/C=C/c1cccnc1`, the IC50 [1] was over 200 µM and the CC50 [2] was over 200 µM.

For `C(=C\c1c(-c2ccccc2)[nH]c2ccccc12)/c1cccnc1`, the IC50 [1] was over 200 µM and the CC50 [2] was over 200 µM.

With `Fc1cccc2[nH]cc(/C=C/c3cccnc3)c12` the IC50 [1] was 10 µM and the CC50 [2] was over 80 µM.

`Clc1cccc2[nH]cc(/C=C/c3cccnc3)c12` gave an IC50 [1] of over 40 µM and a CC50 [2] of 40 µM.

`Brc1cccc2[nH]cc(/C=C/c3cccnc3)c12` gave an IC50 [1] of over 200 µM and a CC50 [2] of over 200 µM.

In the case of `N#Cc1cccc2[nH]cc(/C=C/c3cccnc3)c12`, the IC50 [1] is reported as over 200 µM and the CC50 [2] is reported as over 200 µM.

With `O=[N+]([O-])c1cccc2[nH]cc(/C=C/c3cccnc3)c12` the IC50 [1] was over 200 µM and the CC50 [2] was over 200 µM.

With `COC(=O)c1cccc2[nH]cc(/C=C/c3cccnc3)c12` the IC50 [1] was over 200 µM and the CC50 [2] was over 200 µM.

For `Clc1ccc2[nH]cc(/C=C/c3cccnc3)c2c1`, the IC50 [1] was 20 µM and the CC50 [2] was over 80 µM.

Compound `Brc1ccc2[nH]cc(/C=C/c3cccnc3)c2c1` has an IC50 [1] of 40 µM and a CC50 [2] of 20 µM.

With `Cc1ccc2[nH]cc(/C=C/c3cccnc3)c2c1` the IC50 [1] was over 200 µM and the CC50 [2] was over 200 µM.

Compound `COc1ccc2[nH]cc(/C=C/c3cccnc3)c2c1` has an IC50 [1] of 40 µM and a CC50 [2] of over 80 µM.

For `N#Cc1ccc2[nH]cc(/C=C/c3cccnc3)c2c1`, the IC50 [1] was over 200 µM and the CC50 [2] was over 200 µM.

Compound `O=[N+]([O-])c1ccc2[nH]cc(/C=C/c3cccnc3)c2c1` has an IC50 [1] of over 200 µM and a CC50 [2] of over 200 µM.

With `COC(=O)c1ccc2[nH]cc(/C=C/c3cccnc3)c2c1` the IC50 [1] was over 200 µM and the CC50 [2] was over 200 µM.

Work on `O=C(O)c1ccc2[nH]cc(/C=C/c3cccnc3)c2c1` yielded an IC50 [1] of over 200 µM and a CC50 [2] of over 200 µM.

Work on `Clc1ccc2c(/C=C/c3cccnc3)c[nH]c2c1` yielded an IC50 [1] of 20 µM and a CC50 [2] of over 40 µM.

In the case of `Brc1ccc2c(/C=C/c3cccnc3)c[nH]c2c1`, the IC50 [1] is reported as over 200 µM and the CC50 [2] is reported as over 200 µM.

For `Cc1ccc2c(/C=C/c3cccnc3)c[nH]c2c1`, the IC50 [1] was over 200 µM and the CC50 [2] was over 200 µM.

With `COc1ccc2c(/C=C/c3cccnc3)c[nH]c2c1` the IC50 [1] was over 200 µM and the CC50 [2] was over 200 µM.

With `Oc1ccc2c(/C=C/c3cccnc3)c[nH]c2c1` the IC50 [1] was over 200 µM and the CC50 [2] was over 200 µM.

With `COC(=O)c1ccc2c(/C=C/c3cccnc3)c[nH]c2c1` the IC50 [1] was over 200 µM and the CC50 [2] was over 200 µM.

Work on `Fc1cccc2c(/C=C/c3cccnc3)c[nH]c12` yielded an IC50 [1] of 50 µM and a CC50 [2] of over 400 µM.

Work on `Clc1cccc2c(/C=C/c3cccnc3)c[nH]c12` yielded an IC50 [1] of over 200 µM and a CC50 [2] of over 200 µM.

`Brc1cccc2c(/C=C/c3cccnc3)c[nH]c12` showed an IC50 [1] of over 20 µM and a CC50 [2] of 20 µM.

With `Cc1cccc2c(/C=C/c3cccnc3)c[nH]c12` the IC50 [1] was over 200 µM and the CC50 [2] was over 200 µM.

Compound `COc1cccc2c(/C=C/c3cccnc3)c[nH]c12` has an IC50 [1] of over 200 µM and a CC50 [2] of over 200 µM.

In the case of `Fc1ccc2c(/C=C/c3ccccn3)c[nH]c2c1`, the IC50 [1] is reported as 3 µM and the CC50 [2] is reported as 100 µM.

Work on `C/C=C/c1c[nH]c2ccccc12` yielded an IC50 [1] of over 80 µM and a CC50 [2] of over 80 µM.

`Fc1ccc2c(/C=C/c3ccccc3)c[nH]c2c1` gave an IC50 [1] of 40 µM and a CC50 [2] of 40 µM.

`Fc1ccc2c(/C=C/c3ccc4ccccc4c3)c[nH]c2c1` gave an IC50 [1] of over 200 µM and a CC50 [2] of over 200 µM.

`Fc1cccc(/C=C/c2c[nH]c3cc(F)ccc23)c1` gave an IC50 [1] of 10 µM and a CC50 [2] of 40 µM.

In the case of `Fc1ccc2c(/C=C/c3cccc(Cl)c3)c[nH]c2c1`, the IC50 [1] is reported as over 200 µM and the CC50 [2] is reported as over 200 µM.

Compound `Fc1ccc2c(/C=C/c3cccc(Br)c3)c[nH]c2c1` has an IC50 [1] of over 200 µM and a CC50 [2] of over 200 µM.

In the case of `COc1cccc(/C=C/c2c[nH]c3cc(F)ccc23)c1`, the IC50 [1] is reported as 10 µM and the CC50 [2] is reported as 40 µM.

With `N#Cc1cccc(/C=C/c2c[nH]c3cc(F)ccc23)c1` the IC50 [1] was 1 µM and the CC50 [2] was 20 µM.

Compound `O=[N+]([O-])c1cccc(/C=C/c2c[nH]c3cc(F)ccc23)c1` has an IC50 [1] of 3 µM and a CC50 [2] of 40 µM.

`N#C/C=C/c1c[nH]c2ccccc12` showed an IC50 [1] of 13 µM and a CC50 [2] of over 80 µM.

With `N#C/C=C\c1c[nH]c2ccccc12` the IC50 [1] was over 80 µM and the CC50 [2] was over 80 µM.

With `N#C/C=C/c1c[nH]c2cc(F)ccc12` the IC50 [1] was 3 µM and the CC50 [2] was over 80 µM.

In the case of `C(=C\c1c[nH]c2ccccc12)/c1nnn[nH]1`, the IC50 [1] is reported as 10 µM and the CC50 [2] is reported as over 80 µM.

`COC(=O)/C=C/c1c[nH]c2cc(F)ccc12` showed an IC50 [1] of 2 µM and a CC50 [2] of 40 µM.

`OC/C=C/c1c[nH]c2cc(F)ccc12` gave an IC50 [1] of 80 µM and a CC50 [2] of 100 µM.

Work on `N#C/C(=C\c1c[nH]c2cc(F)ccc12)c1ccccc1` yielded an IC50 [1] of over 80 µM and a CC50 [2] of over 80 µM.

`CCOC(=O)/C(C#N)=C/c1c[nH]c2cc(F)ccc12` gave an IC50 [1] of over 80 µM and a CC50 [2] of over 80 µM.

For `N#C/C(=C\c1c[nH]c2cc(F)ccc12)C(=O)O`, the IC50 [1] was over 80 µM and the CC50 [2] was over 80 µM.

With `O=C(O)C(=Cc1c[nH]c2cc(F)ccc12)C(=O)O` the IC50 [1] was over 80 µM and the CC50 [2] was over 80 µM.

In the case of `c1cncc(CCc2c[nH]c3ccccc23)c1`, the IC50 [1] is reported as 80 µM and the CC50 [2] is reported as over 80 µM.

`C(#Cc1c[nH]c2ccccc12)c1cccnc1` gave an IC50 [1] of 6 µM and a CC50 [2] of 200 µM.

In the case of `c1cncc(CCCc2c[nH]c3ccccc23)c1`, the IC50 [1] is reported as over 200 µM and the CC50 [2] is reported as over 200 µM.

With `N#CCc1c[nH]c2ccccc12` the IC50 [1] was over 80 µM and the CC50 [2] was over 80 µM.

With `N#CCCc1c[nH]c2ccccc12` the IC50 [1] was over 80 µM and the CC50 [2] was over 80 µM.

`c1ccc2c(-c3nnn[nH]3)c[nH]c2c1` showed an IC50 [1] of over 80 µM and a CC50 [2] of over 80 µM.

`c1ccc2c(Cc3nnn[nH]3)c[nH]c2c1` showed an IC50 [1] of over 80 µM and a CC50 [2] of over 80 µM.

Compound `c1ccc2c(CCc3nnn[nH]3)c[nH]c2c1` has an IC50 [1] of over 80 µM and a CC50 [2] of over 80 µM.

`Fc1ccc2c(/C=C/c3ccncc3)c[nH]c2c1` showed an IC50 [1] of 3 µM and a CC50 [2] of 200 µM.

Work on `C(=C\c1c[nH]c2ccccc12)/c1cccnc1` yielded an IC50 [1] of 1 µM and a CC50 [2] of over 80 µM.

In the case of `O=C(O)/C=C/c1c[nH]c2ccccc12`, the IC50 [1] is reported as 18 µM and the CC50 [2] is reported as over 400 µM.

`N#Cc1c[nH]c2ccccc12` gave an IC50 [1] of over 80 µM and a CC50 [2] of over 80 µM.
